In patent US20060233743A1, “Compositions and methods of therapy” (priority 2002, published 2006):

Columns and labels:
[1] = system: cells of the immune system; test: release of IL-10 from cells of the immune system in the presence of GMCSF; format: cell-based
PDE = details: cited from earlier work
U937 cells = test: Example 5: IL-10 and TNFα mRNA in U937 cells; format: cell-based, human; details: differentiation, PMA 2×10^−7 M
Procedure: U937 (human monocyte cell line) cells were grown in RPMI (PAA Laboratories) medium with 10% fetal calf serum added (PAA Laboratories). Cells were treated with prostaglandin E2 at 10^−6 Molar, Rolipram 10^−6 Molar, Forskolin 50×10^−6 Molar with or without GMCSF at 5 ng/ml for 48 hours. Cells were pelleted and the mRNA was extracted with Tri reagent (Sigma, Poole, UK). Total RNA was obtained by addition of chloroform and subsequent isopropanol precipitation. RNA was reverse transcribed with reverse transcriptase (Applied Biosystems) and random hexamers (Applied Biosystems). Probes and primers for amplification and detection of IL-10 were designed using Primer Express (Applied Biosystems) and are as follows:
As for Example 4 but mRNA for TNFα alpha is also included.
Data is shown as the ratio of IL-10 mRNA/TNFα mRNA. P═PMA=Phorbol myristoyl acetate; F=Fsk=Forskolin, g=GMCSF, C=vehicle control.

type IV PDE = type IV PDE inhibitor; cited from earlier work

Molecule: 19-hydroxy PGE
- stimulation of IL-10 [1]: increased strikingly

Molecule: CC(C)Cn1c(=O)n(C)c(=O)c2[nH]cnc21 [IBMX, 3-isobutyl-1-methylxanthine]
- IC50 (PDE; non-specific PDE inhibitor): 2 to 50 µM

Molecule: CCCCC[C@H](O)/C=C/[C@H]1[C@H](O)CC(=O)[C@@H]1C/C=C\CCCC(=O)O [PGE, prostaglandin E2]
- stimulation of IL-10 [1]: increased strikingly

Molecule: CCCCCCCCCCCCCC(=O)O[C@@H]1[C@@H](C)[C@@]2(O)[C@@H](C=C(CO)C[C@]3(O)C(=O)C(C)=C[C@@H]23)[C@@H]2C(C)(C)[C@]12OC(C)=O [PMA, Phorbol myristoyl acetate]
- IL-10 mRNA (U937 cells): increased
- TNFα mRNA (U937 cells; Forskolin 50×10^−6 Molar, GMCSF 5 ng/ml): also increased

Molecule: CCCCOc1cc(CC2CNC(=O)N2)ccc1OC (centres unmarked) [Ro-20-1724, 4-[3-butoxy-4-methoxybenzyl]-2-imidazolidinone]
- IC50 (type IV PDE): 2 µM

Molecule: COc1ccc(C2CNC(=O)C2)cc1OC1CCCC1 (centres unmarked) [rolipram, 4-[3-cyclopentyloxy-4-methoxyphenyl]-2-pyrrolidinone]
- IC50 (type IV PDE): 0.8 µM

Molecule: Cn1c(=O)c2[nH]cnc2n(C)c1=O [theophylline]
- times less effective than rolipram (PDE; non-selective inhibitor compared with rolipram): 30 times
